The text below walks through data of US12338199B2, “Bis-octahydrophenanthrene carboxamides and protein conjugates thereof” (REGENERON PHARMACEUTICALS, INC., priority 2017, dated 2025).

The term pIC50 denotes the IC50 on a negative log10 scale, so that one unit is a factor of ten. As a reminder, the solubility is how much of the substance goes into solution per volume. Low readings indicate little dissolved substance, high ones much dissolved substance.

pEC50, pIC50: −log10 of the molar value. Converted amounts (≈) assume the structure as drawn.

For one data set, the target named is T1, LXRβ (Homo sapiens, UniProt P55055).
T1 sequence (P55055 1-460): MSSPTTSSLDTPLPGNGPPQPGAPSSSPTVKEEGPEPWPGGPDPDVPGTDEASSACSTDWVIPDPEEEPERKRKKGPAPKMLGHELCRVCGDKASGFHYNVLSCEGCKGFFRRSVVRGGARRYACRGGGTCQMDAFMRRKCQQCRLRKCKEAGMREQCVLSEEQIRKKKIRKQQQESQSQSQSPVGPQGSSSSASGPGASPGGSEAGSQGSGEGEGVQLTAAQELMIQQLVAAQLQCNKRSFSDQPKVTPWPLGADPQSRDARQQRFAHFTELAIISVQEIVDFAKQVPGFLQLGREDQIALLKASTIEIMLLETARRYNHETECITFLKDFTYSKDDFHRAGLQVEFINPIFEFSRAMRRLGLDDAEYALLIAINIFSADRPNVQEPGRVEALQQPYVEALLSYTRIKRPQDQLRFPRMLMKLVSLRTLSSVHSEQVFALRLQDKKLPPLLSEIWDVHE
As to conditions: reported in Bioconjug Chem. 2015 26(11), 2216-22; cited from earlier work.

A further data set concerns the target T2, LXRα (Homo sapiens, UniProt Q13133).
T2 sequence (Q13133 1-447): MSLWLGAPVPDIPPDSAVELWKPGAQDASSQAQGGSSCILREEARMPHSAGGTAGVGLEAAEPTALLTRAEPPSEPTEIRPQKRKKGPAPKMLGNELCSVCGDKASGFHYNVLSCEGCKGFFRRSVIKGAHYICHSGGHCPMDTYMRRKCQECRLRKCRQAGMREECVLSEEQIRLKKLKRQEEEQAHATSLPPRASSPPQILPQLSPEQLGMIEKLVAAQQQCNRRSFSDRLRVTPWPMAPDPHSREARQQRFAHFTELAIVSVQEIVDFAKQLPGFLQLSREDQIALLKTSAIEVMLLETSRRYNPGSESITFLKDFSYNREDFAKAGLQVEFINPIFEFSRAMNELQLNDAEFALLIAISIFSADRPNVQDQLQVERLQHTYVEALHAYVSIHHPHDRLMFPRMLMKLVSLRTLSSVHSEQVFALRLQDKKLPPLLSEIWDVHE
As to conditions: reported in Bioconjug Chem. 2015 26(11), 2216-22; cited from earlier work.

Another data set deals with T3, LXR alpha (Homo sapiens, UniProt Q13133).
T3 construct: LXR alpha or beta LBD-GST; purchased ThermoFisher PV4655
T3 sequence (Q13133 209-447 limits assumed): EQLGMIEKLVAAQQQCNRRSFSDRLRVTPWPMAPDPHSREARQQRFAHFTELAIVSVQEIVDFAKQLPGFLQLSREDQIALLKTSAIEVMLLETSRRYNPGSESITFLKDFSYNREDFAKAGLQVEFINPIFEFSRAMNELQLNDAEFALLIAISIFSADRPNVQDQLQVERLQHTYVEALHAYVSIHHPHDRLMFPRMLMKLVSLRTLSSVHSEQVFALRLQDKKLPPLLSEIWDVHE
In words: LanthaScreen TR-FRET LXR alpha Coactivator Assay (cell-free binding). The following applies: TR-FRET, 12-point curve; read-out: Cell free binding LXRα IC50. On the technique in general: In TR-FRET formats the signal depends on donor and acceptor labels being close together.

For a further data set, the target named is T4, LXR beta (Homo sapiens, UniProt P55055).
T4 construct: LXR alpha or beta LBD-GST; purchased ThermoFisher PV4658
T4 sequence (P55055 222-460 limits assumed): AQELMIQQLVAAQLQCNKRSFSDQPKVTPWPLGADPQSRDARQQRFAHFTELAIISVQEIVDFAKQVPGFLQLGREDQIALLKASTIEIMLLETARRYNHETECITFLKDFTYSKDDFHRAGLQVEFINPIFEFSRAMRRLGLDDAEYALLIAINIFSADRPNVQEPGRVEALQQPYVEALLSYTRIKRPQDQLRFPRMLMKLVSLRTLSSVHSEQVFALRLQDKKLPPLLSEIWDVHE
The data set can be described thus: LanthaScreen TR-FRET LXR beta Coactivator Assay (cell-free binding). As to conditions: TR-FRET, 12-point curve; read-out: Cell free binding LXRβ IC50.

In a further data set the test system is THP1/LXR-Luc cells. The data set can be described thus: THP1/LXR-Luc luciferase reporter bioassay. The format is cell-based. The following applies: Homo sapiens, THP-1, 48 hours. In short, it runs like this: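 THP1 cells stably carrying an LXR-response-element firefly luciferase reporter were seeded at 30,000/well in RPMI/10% FBS and given 3-fold dilutions (100 nM to 0.01 nM) for 48 or 72 h. Luminescence was read with One-Glo. EC50 came from a 4-parameter fit of a 10-point curve, and fold activation was taken relative to maximal free-payload activation.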
For orientation: A reporter such as luciferase makes a cellular process visible.

The next data set can be described thus: Solubility in water. It is filed as physicochemical. The following applies: H2O. Here is the method: To a solution of compound LP2-6 (4.3 mg, 7.8 μmol) in anhydrous DMF (1 mL) was added HATU (3.0 mg, 7.8 μmol). The mixture was stirred at 10° C. for 10 minutes before compound LP2-5 (15 mg, 6.5 μmol) and DIPEA (1.7 mg, 13 μmol) was added. The mixture was stirred at RT for 2 hours until LP2-5 was totally consumed, as monitored by LCMS. […]

For the compound `CCc1cnc2c(C(F)(F)F)cccc2c1-c1cccc(Oc2cccc(S(=O)(=O)N(C)CCN)c2)c1` [Compound 31, N-(2-Aminoethyl)-3-(3-(3-ethyl-8-(trifluoromethyl)quinolin-4-yl)phenoxy)-N-methylbenzenesulfonamide, reference compound], the “binding affinity to LXRβ” value on LXRβ is listed as 12 nM. Further, the “binding affinity to LXRα” value at LXRα is 1.5 nM. Besides, the pIC50 at LXR alpha and on LXR beta was greater than 8.00 in each case. Further, in the data set on THP1/LXR-Luc cells (read-out: Activation of THP1/LXR-Luc cells: EC50), the pEC50 is 7.00 to 8.00. In addition, the Emax in the data set on THP1/LXR-Luc cells (relative to maximum activation of free payload 9d, read-out: Activation of THP1/LXR-Luc cells: Fold of activation) is 25 to 75%.

In the data set “Solubility in water”, `CC(C)[C@H](NC(=O)[C@@H](CCCCNC(=O)COC1CCCCCc2c1nnn2CC1OC2OC3C(CO)OC(OC4C(CO)OC(OC5C(CO)OC(OC6C(CO)OC(OC7C(CO)OC(OC8C(CO)OC(OC9C(CO)OC(OC1C(O)C2O)C(O)C9O)C(O)C8O)C(O)C7O)C(O)C6O)C(O)C5O)C(O)C4O)C(O)C3O)NC(=O)CCOCCOCCOCCOCCNC(=O)CCC(=O)N1Cc2ccccc2C#Cc2ccccc21)C(=O)N[C@@H](C)C(=O)Nc1ccc2c(c1)[C@@]1(C)CCC[C@](C)(C(=O)NC(=O)[C@@]3(C)CCC[C@]4(C)c5cc(O)ccc5CC[C@@H]34)[C@@H]1CC2` (stereo partly shown) [LP32] yielded a solubility of 75 µg/mL (≈ 26.3 µM).
